According to article PMC6680430, “Quantitative Prediction of Human Pharmacokinetics and Pharmacodynamics of CKD519, a Potent Inhibitor of Cholesteryl Ester Transfer Protein (CETP)” (Pharmaceutics, 2019):

Legend:
[1] = animal full PK study in hamsters (NCA and PK model); assay type: in vivo; conditions: hamster; for Tmax: median (range)
Method: Animal PK data for analysis were collected from preclinical studies performed at ChongKunDang laboratory. All animal experiments were performed with relevant guidelines and regulations, and the protocol was approved by the Institutional Animal Care and Use Committee (IACUC) of ChongKunDang (Approval number: S-13-015). A single dose of CKD519 was administered either orally or via intravenous infusion to hamsters (intravenous dose of 0.5 mg/kg, oral dose of 3, 15, or 45 mg/kg, n = 30); rats (intravenous dose of 0.5 mg/kg, oral dose of 5, 15, or 45 mg/kg, n = 20); and monkeys (intravenous dose of 0.1 mg/kg, oral dose of 1, 5, or 30 mg/kg, n = 16). The identical solution was administered to all animal species in the fasted state. Plasma CKD519 concentration was measured before and at 0.083, 0.25, 0.5, 1, 2, 4, 8, and 24 h after administration in hamsters and rats, and before and at 0.083, 0.25, 0.5, 1, 2, 4, 6, 8, 12, 24, 48, and 72 h after administration in monkeys. Two hamsters given identical doses were sampled in a rotating manner.
The plasma samples were stored at −70 °C before the analysis and were thawed at room temperature. […] A sensitive, specific, and validated liquid chromatography coupled with a tandem mass spectrometer (HPLC-MS/MS) assay was used for the determination of CKD519 concentration in animal plasma samples. A structural analogue of CKD519 was used as the internal standard. The validated working range was from 2 ng/mL (the lower limit of quantification, LLOQ) to 20,000 ng/mL. Quality control (QC) samples were analyzed together with the study samples. Intra-day and inter-day precision and accuracy results were within the acceptance criteria based on the Ministry of Food and Drug Safety (MFDS) guidelines. An exploratory data analysis was performed through non-compartmental analysis (NCA) using the NonCompart package (developed by Bae, version 0.4.4) in R (version 3.5.1, The R Foundation, Vienna, Austria).
Using the PK data from each species, nonlinear mixed-effect modeling was conducted using NONMEM (version 7.4, Icon Development Solutions, Ellicott City, MD, USA) reflecting the clues from NCA. The first-order conditional estimation method with interaction (FOCE-I) was used whenever applicable. The adequacy of the model was checked using changes in the objective function value (OFV), visual inspection of various diagnostic plots (goodness-of-fit (GOF) plot), and methods of visual predictive check (VPC) and bootstrap were used for the diagnostics on the model stability and parameter reliability. The significance of model improvement was evaluated using a likelihood-ratio test (LRT). In the nested models, the result was considered statistically significant if the OFV decreased more than 3.84 (p-value < 0.05, degree of freedom (df) = 1) and 5.99 (p-value < 0.05, df = 2). The degree of freedom is defined as the gap of the numbers of parameters of the two subsequent models that are being compared. In the case of non-nested models, the Akaike information criteria (AIC) value was used to select the model that best described the data. R (version 3.5.1., R Foundation for Statistical Computing, Vienna, Austria) was used for data preparation, NCA, graphical analysis, model diagnostics, and statistical summaries.
Initially, a two-compartment model with first-order absorption was developed to describe the biphasic curve, and several absorption structures (e.g., zero-order with absorption lag time, Weibull-type absorption) were applied to the base model if needed. The change in absolute bioavailability (F) by dose levels was also considered. […]

[2] = human PK parameter prediction by allometric scaling; conditions: 60 kg human
Text: The volume parameters (Vc, Vp) estimated from the PK models for three different species were correlated through simple allometric scaling (=Body weight-dependent allometry) in the PK model fitted to the overall data from all species. This method is based on the power–law function, which can be represented as follows:Y = a × BW^b,(2) where Y represents the PK parameter of interest from each animal; BW represents the average body weight of each species from the relevant in vivo studies; and a and b are the allometric coefficient and exponent of the equation, respectively.
For the allometric scaling of the clearance parameters (CL, Q) in the same model, physiological parameters such as brain weight (BrW) or maximum lifespan potential (MLP) of each species were incorporated if necessary. To address the uncertainty, two allometric relationships were selected as the final models, and two sets of human PK parameters were predicted: one from the allometry of best fit and the other from the most conventional simple allometry. The appropriateness of the extrapolated human PK parameter values was assessed by comparing them with those of the comparator. Since allometric scaling is not generally recommended for the absorption parameter, human absorption parameters were determined by the final estimates from the overall PK model instead of the allometric method.
As mentioned in Section 2.4, predicted human (with the body weight of 60 kg) PK parameter values were obtained using the simple and BrW-corrected (the best fit) allometric relationships and the final estimates for allometric coefficient and exponent in overall PK models.

[3] = preclinical in vitro and in vivo efficacy studies (off-target effects)
[4] = PK model, final estimate (%RSE)
[5] = intravenous 0.5 mg/kg, NCA, mean ± SD
[6] = two-compartment PK model, final estimate (%RSE)
[7] = brain weight-corrected allometry

α (scale parameter of Weibull absorption) [1, 4]: 4.20 (4.14%)
β (shape parameter of Weibull absorption) [1, 4]: 2.62 (4.47%)
AUClast [1, 5]: 8760 ± 635 ng·h/mL
V/F * (V for intravenous) [1, 5]: 138 ± 89.9 mL
ke [1, 5]: 0.0616 ± 0.0446 h⁻¹
t1/2 [1, 5]: 16.9 ± 14.1 h
Tmax ([1]; intravenous 0.5 mg/kg, NCA): 0.083 (0.083–0.083) h
AUClast ([1]; oral 3 mg/kg, NCA, mean ± SD): 6140 ± 471 ng·h/mL
CL/F ([1]; oral 3 mg/kg, NCA, mean ± SD): 34.7 ± 3.08 mL/h
Cmax ([1]; oral 3 mg/kg, NCA, mean ± SD): 659 ± 89.3 ng/mL
V/F ([1]; oral 3 mg/kg, NCA, mean ± SD): 1570 ± 163 mL
ke ([1]; oral 3 mg/kg, NCA, mean ± SD): 0.0223 ± 0.00294 h⁻¹
t1/2 ([1]; oral 3 mg/kg, NCA, mean ± SD): 31.5 ± 4.41 h
Tmax ([1]; oral 3 mg/kg, NCA): 3.5 (3–4) h
AUClast ([1]; oral 15 mg/kg, NCA, mean ± SD): 18800 ± 4310 ng·h/mL
CL/F ([1]; oral 15 mg/kg, NCA, mean ± SD): 66.6 ± 20.1 mL/h
Cmax ([1]; oral 15 mg/kg, NCA, mean ± SD): 3250 ± 465 ng/mL
V/F ([1]; oral 15 mg/kg, NCA, mean ± SD): 2460 ± 162 mL
ke ([1]; oral 15 mg/kg, NCA, mean ± SD): 0.0268 ± 0.00613 h⁻¹
t1/2 ([1]; oral 15 mg/kg, NCA, mean ± SD): 26.8 ± 5.23 h
Tmax ([1]; oral 15 mg/kg, NCA): 4 (3–4) h
AUClast ([1]; oral 45 mg/kg, NCA, mean ± SD): 26700 ± 2330 ng·h/mL
CL/F ([1]; oral 45 mg/kg, NCA, mean ± SD): 145 ± 9.52 mL/h
Cmax ([1]; oral 45 mg/kg, NCA, mean ± SD): 3160 ± 614 ng/mL
V/F ([1]; oral 45 mg/kg, NCA, mean ± SD): 4330 ± 572 mL
ke ([1]; oral 45 mg/kg, NCA, mean ± SD): 0.0338 ± 0.00311 h⁻¹
t1/2 ([1]; oral 45 mg/kg, NCA, mean ± SD): 20.7 ± 1.76 h
Tmax ([1]; oral 45 mg/kg, NCA): 4 (3–6) h
CL [1, 6]: 0.00377 (7.40%) L/h
Q [1, 6]: 0.00617 (10.3%) L/h
Vc [1, 6]: 0.00472 (9.43%) L
Vp [1, 6]: 0.0924 (9.78%) L
CL, predicted human [2, 7]: 0.777 L/h
F 50, predicted human [2, 7]: 10.6
F max, predicted human [2, 7]: 0.192
Q, predicted human [2, 7]: 2.39 L/h
Vc, predicted human [2, 7]: 4.41 L
Vp, predicted human [2, 7]: 48.8 L
α, predicted human [2, 7]: 4.51
β, predicted human [2, 7]: 3.11
CL, predicted human ([2]; simple allometry): 0.264 L/h
F 50, predicted human ([2]; simple allometry): 10.6
F max, predicted human ([2]; simple allometry): 0.192
Q, predicted human ([2]; simple allometry): 1.17 L/h
Vc, predicted human ([2]; simple allometry): 3.29 L
Vp, predicted human ([2]; simple allometry): 49.7 L
α, predicted human ([2]; simple allometry): 4.51
β, predicted human ([2]; simple allometry): 3.11
off-target effects [3]: no off-target effects
Structure (SMILES): COc1cc(F)c(C(C)C)cc1C1=C(CN2C(=O)O[C@H](c3cc(C(F)(F)F)cc(C(F)(F)F)c3)[C@@H]2C)CC(C)(C)CC1 [CKD519]
